The values below come from patent US9375424B2, “Compounds that treat malaria and prevent malaria transmission” (The United States of America, as represented by the …, priority 2009, dated 2016).

One assay deals with P. falciparum lines. Kind of assay: qHTS SYBR Green Plasmodium proliferation assay in infected erythrocytes (seven parasite lines). It is filed as cell-based. The conditions noted are these: Erythrocyte, read-out: IC50, inhibition of proliferation in all parasite lines. The method, then:
The P. falciparum lines used in this study have been described previously (Mu J, et al. Multiple transporters associated with malaria parasite responses to chloroquine and quinine. Mol Microbiol 2003;49:977-989). […] Briefly, 3 μl culture medium was dispensed into 1536-well black clear-bottom plates (Aurora Biotechnologies) using a Multidrop Combi (Thermo Fisher Scientific Inc.); 23-nL compounds in DMSO were added by a pin tool (Kalypsys), and 5 μl of P. falciparum-infected RBCs (0.3% parasitemia, 2.5% hematocrit final concentration) were added. The plates were incubated at 37° C. in a humidified incubator in 5% CO2 for 72 h, and 2 μl lysis buffer (20 mM Tris-HCl, 10 mM EDTA, 0.16% saponin, 1.6% triton-X, 10× SYBR Green I supplied as 10,000× final concentration by Invitrogen) was added to each well. The plates were mixed for 25 sec with gentle shaking and incubated overnight at room temperature in the dark. The following morning, fluorescence intensity at 485 (14) nm excitation and 535 (25) nm emission wavelengths was measured on an En Vision (Perkin Elmer) plate reader. […] The plates were incubated at 37° C. under 5% CO2, 5% 02, and 90% N2 for 72 h, incubated for another 30 min after addition of 50 μl lysis buffer, and read in a FLUOstar OPTIMA reader (BMG Labtech). Data were analyzed using software at the NIAID Bioinformatic Resources (niaid-biocluster.niaid.nih.gov/cgi-bin/bipod2/index.cgi). Parasite proliferation was measured after 72 hr of incubation (corresponding to 1.5 generations of intra-erythrocytic parasite growth), with each compound tested at seven or eight five-fold dilutions beginning at 29 μM. […] The potencies of known antimalarial agents had similar values determined by the assay in 96-well plate format. […] Although the determined potencies of 4 were lower, the relative potency between lines sensitive to 4, HB3, 3D7, and D10 were clearly distinguished from resistant lines. […] The potencies of compounds scored as active or inconclusive in both replicates correlated well indicating good repeatability in determining IC50 values between replicates.

The subject of assay [1] is P. falciparum gametocytes. Kind of assay: killing of P. falciparum gametocytes in vitro. The format is cell-based, Plasmodium falciparum.
Assay [2] concerns Plasmodium yoelii nigeriensis. It is filed as in vivo. The conditions noted are these: for oocyst formation: mosquito feeding 1 hr after treatment (FIG. 1A), untreated control average 460 oocysts per mosquito. The method, then: Mice infected with Plasmodium yoelii nigeriensis were treated with drugs in different concentrations for various time periods and were exposed to mosquitoes. Oocysts were counted from dissected midgut 9-10 days after feeding. FIG. 1A, the number of oocysts from mosquitoes fed on mice treated with different TAA compounds for 1 hour. CAR, carbita Pentane (100 mg/kg); CHL, chlorpromazine (30 mg/kg); DEQ, dequalinium dichloride (10 mg/kg); Dox, doxipin hydrochloride (30 mg/kg); Ima, Imipramine (100 mg/kg), KET, ketotifen (100 mg/kg); Pro, protryptiline hydrochloride (10 mg/kg). FIG. 1B, the number of oocysts from mosquitoes fed on mice treated with different concentrations of ketotifen (KET) for 1 hour, compared with those treated with standard anti-malarial drugs, primaquine (PQ, 5 and 10 mg/kg), arteminisinin (ART, 5 mg/kg) and chloroquine (CQ, 10 mg/kg). FIG. 1C, the number of oocysts from mosquitoes fed on mice treated with a single dose of 0.5 mg/kg or 0.1 mg/kg of ketotifen (KET) for 1, 6 or 24 hours. FIG. 1D, the number of oocysts from mosquitoes fed on mice treated with two doses of 0.5 mg/kg or 0.1 mg/kg (filled symbol) of ketotifen (KET) for 1, 6 or 24 hours. CON, no drug control.
For testing transmission-blocking activity in vivo, CD-1 strain female mice, aged 6-8 weeks old, were infected intra-peritoneally (i.p.) with 5×106 P. yoelii nigeriensis. In a preliminary experiment, on day 3 post infection the animals were administrated i.p. a single dose of tricyclic antihistamine and antidepressants (TAA) compound or pharmaceutical-grade phosphate buffer saline (pH 7.4). Starting 1 hr after the administration of the TAA compound, the animals were anesthetized and brought into contact with a colony of Anopheles stephensimosquitoes. The mosquitoes were allowed to feed on the mice. Unfed or partially engorged mosquitoes were removed from the cages. The mosquitoes were maintained for 9-10 days 24 ±1° C. and 80-90% relative humidity. The gametocytocidal activity of the test compound was accessed on the basis of the oocyst counts in mosquitoes fed on treated animals and a control group. In subsequent experiments, the gametocytocidal action of ketotifin at different concentrations and doses was evaluated similarly. One group was given a single dose of 0.1, 0.5, 1, 5, 10, 30 or 60 mg/kg on day 3 post infection and subjected to mosquito feeding 1 hr after compound administration. Primaquine, chloroquine and arteminsin were used as reference drugs. The other group was given one dose or two doses of 0.1 or 0.5 mg/kg at 4 hr interval and subjected to mosquito feeding 1, 6 or 24 hrs after the final drug administration.

Setting [3] is: all seven parasite lines, 72 h incubation.
[4] abbreviates: 5 mg/kg single dose, treatment for 1 hr.
The mark [5] stands for this setting: two doses of 0.5 mg/kg at 4 hours interval, 24-hour treatment.

SMILES strings stand for the structures. Structures can show the parent of a compound that is named as a salt. Where two headings read alike, the source gives them in different places.

In the case of `Cc1cc(N)c2ccccc2[n+]1CCCCCCCCCC[n+]1c(C)cc(N)c2ccccc21` [dequalinium dichloride], in the assay on P. falciparum lines (setting [3]), the IC50 was under 2 µM.
As to `CN1CCC(=C2c3ccccc3CC(=O)c3sccc32)CC1` [ketotifen], the “concentration that completely kills P. falciparum gametocytes in vitro” value in assay [1] worked out at 0.5 µM. The “average number of oocysts per mosquito” value in assay [2] (1 mg/kg single dose, treatment for 1 hr (FIG. 1B)) worked out at 34 oocysts per mosquito. The “mosquitoes that had oocysts” value is 2 of 44 in assay [2] (setting [4]) and 4 of 23 in assay [2] (setting [5]). Besides, the oocyst counts in assay [2] (setting [4]) turned out to be 0.13 oocysts per mosquito; in assay [2] (single dose 0.1 mg/kg, 24 hours prior to mosquito feeding (FIG. 1C)) it was 82 oocysts per mosquito; in assay [2] (single dose 0.5 mg/kg, 24 hours prior to mosquito feeding (FIG. 1C)), 12 oocysts per mosquito; in assay [2] (two doses of 0.1 mg/kg at 4 hours interval, 24-hour treatment time (FIG. 1D)) it was 80 oocysts per mosquito; in assay [2] (two doses of 0.5 mg/kg at 4 hours interval, 24-hour treatment (FIG. 1D)), 2 oocysts per mosquito. The oocyst development result in assay [2] (5 mg/kg single dose, treatment for 1 hr (FIG. 1B)) is “almost completely blocked oocyst development”. In addition, the oocyst formation result in assay [2] (100 mg/kg single dose i.p.) is “strong reduction in oocyst formation”. Further, the “dose achieving similar reduction in oocyst count to primaquine, as share of the primaquine dose” value in assay [2] (relative to primaquine dose) stood at 10%. Further, the “oocysts in the mosquitoes” value in assay [2] (setting [5]) is listed as “almost completely eliminated oocysts”.
With `COc1cc(NC(C)CCCN)c2ncccc2c1` (stereo not shown) [primaquine], in assay [2] (setting [4]), the “mosquitoes that had oocysts” value is 7 of 21 and the oocyst counts stood at 6 oocysts per mosquito.
On to `CNCCCC1c2ccccc2C=Cc2ccccc21` [protryptiline hydrochloride], for which the oocyst formation result in assay [2] (10 mg/kg single dose i.p.) was “strong reduction in oocyst formation”.
In the case of `CCN(CC)CCCC(C)Nc1c2ccc(Cl)cc2nc2ccc(OC)cc12` (stereo not shown) [quinacrine], the IC50 in the assay with P. falciparum lines (72 h) is under 2 µM.
With `CC(=O)O[C@H]1C(=O)[C@@]2(C)[C@H]([C@H](OC(=O)c3ccccc3)[C@]3(O)C[C@H](OC(=O)[C@H](O)[C@@H](NC(=O)c4ccccc4)c4ccccc4)C(C)=C1C3(C)C)[C@]1(OC(C)=O)CO[C@@H]1C[C@@H]2O` [taxol], in the assay on P. falciparum lines (setting [3]), the IC50 is under 2 µM.
